Measurements: patent publication US11890348B2, “Localized delivery of anti-fugetactic agent for treatment of cancer” (THE GENERAL HOSPITAL CORPORATION, priority 2015, dated 2024)

What was measured:
[1] = test system: human CD3+ T cells
Procedure: Freshly prepared and purified human CD3^+ T cells were prepared from healthy donor peripheral blood. 20,000 T cells were loaded into the upper chamber of the Transwell in control, chemotactic or fugetactic settings with AMD3100 at concentrations between 0.1 μM and 10 μM. Migrated cells were counted in the lower chamber and migration quantitated as previously described. Vianello et al. The Journal of Immunology, 2006, 176: 2902-2914; Righi et al., Cancer Res.; 71(16): 5522-34, each of which is incorporated herein in its entirety.
All wells were run in triplicate.

[2] = test system: human CD3 T cells; details: T cells incubated with 0.01 μM to 10 mM AMD3100 before addition to the chamber; harvest after 3 h
Procedure: For quantitative transmigration assays, purified human CD3′ T cells (approximately 2×10^4 cells) are added to the upper chamber of a Transwell®, insert in each well, to a total volume of 150 μl of Iscove's modified medium.
To determine the anti-fugetactic concentration of AMD3100, the T cells are incubated with 0.01 μM to 10 mM AMD3100 prior to addition to the chamber.
Cells are harvested from the lower chamber after 3 h, and cell counts are performed using a hemocytometer.

c1cc(CN2CCCNCCNCCCNCC2)ccc1CN1CCCNCCNCCCNCC1 [AMD3100]
effect on human T cell chemotaxis ([1]; FIG. 1, AMD3100 0.1 μM to 10 μM): bimodal effect
effect on human T cell fugetaxis ([1]; FIG. 2, AMD3100 0.1 μM to 10 μM, antifugetactic properties observed in a specific range): bimodal effect
chemotactic index (CI), chemotactic response ([1]; chemotactic setting, AMD3100 at 1 μM, CI of 1.0 is the control, FIG. 1, triplicate wells): 2.3
chemotactic index (CI), fugetactic response ([1]; fugetactic setting, AMD3100 at 0.1 μM, CI of 1.0 is the control, FIG. 2, triplicate wells): 1.6
effect on T cell migration (anti-fugetactic at lower, fugetactic at higher concentrations) [2]: bimodal effect
